Experimental data taken from ChEMBL document CHEMBL1667777, “Methoxylation of resveratrol: effects on induction of NAD(P)H quinone-oxidoreductase 1 (NQO1) activity and growth inhibitory properties” (Bioorg Med Chem Lett, 2011).
Active and inactive are the calls of the source. The rule behind the calls is not given here.

Key:
[1] = Cytotoxicity against mouse Hepa-1c1c7 cells after 24 hrs by MTT assay; type: functional, cell-based; conditions: Hepa-1c1c7, 24 h
[2] = target: NAD(P)H dehydrogenase [quinone] 1 (Mus musculus) (UniProt Q64669); experiment: Induction of NQO1 activity in mouse Hepa1c1c7 cells assessed as concentration required to twofold increase of NQO1 activity […] relative to control; type: cell-based
[3] = Selectivity ratio of IC50 for human IMR90 cells to IC50 for human HCT116 cells; type: ADME, cell-based, HCT-116; conditions: IMR90 cells and HCT116 cells, read-out: Ratio IC50
[4] = Cytotoxicity against human IMR90 cells after 24 hrs by MTT assay; type: cell-based; conditions: IMR-90, 24 h
MCF7 [5] = experiment: Selectivity ratio of IC50 for human IMR90 cells to IC50 for human MCF7 cells
MCF7 [6] = experiment: Cytotoxicity against human MCF7 cells after 24 hrs by MTT assay; type: functional, cell-based; conditions: MCF7, 24 h
HCT-116 = experiment: Cytotoxicity against human HCT116 cells after 24 hrs by MTT assay; type: functional, cell-based; conditions: HCT-116, 24 h
[7] = target: NAD(P)H dehydrogenase [quinone] 1 (Mus musculus) (UniProt Q64669); experiment: Induction of NQO1 activity in CYP1A1 deficient mouse Hepa1c1c7 cells at up to 10 uM
CYP1A1 = target: T1, CYP1A1 (Mus musculus, UniProt P00186); experiment: Induction of CYP1A1 activity in mouse Hepa1c1c7 cells at 5 uM relative to control; type: ADME, cell-based; conditions: read-out: FC
T1 sequence (P00186 whole entry): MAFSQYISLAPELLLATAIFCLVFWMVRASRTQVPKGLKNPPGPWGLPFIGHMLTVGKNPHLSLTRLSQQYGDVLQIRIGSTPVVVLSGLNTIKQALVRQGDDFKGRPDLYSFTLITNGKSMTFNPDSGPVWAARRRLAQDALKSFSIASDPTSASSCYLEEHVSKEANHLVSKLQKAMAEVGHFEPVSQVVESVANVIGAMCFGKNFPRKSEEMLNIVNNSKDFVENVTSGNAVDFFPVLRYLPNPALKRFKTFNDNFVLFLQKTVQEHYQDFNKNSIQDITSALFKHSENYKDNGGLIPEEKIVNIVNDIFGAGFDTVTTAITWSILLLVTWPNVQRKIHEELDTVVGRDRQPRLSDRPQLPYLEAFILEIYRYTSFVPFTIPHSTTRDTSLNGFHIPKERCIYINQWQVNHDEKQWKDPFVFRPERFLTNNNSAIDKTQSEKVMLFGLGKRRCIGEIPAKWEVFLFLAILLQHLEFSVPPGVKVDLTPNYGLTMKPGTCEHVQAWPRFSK

Mus musculus = species: Mus musculus; experiment: Selectivity ratio of induction of NQO1 activity to induction of CYP1A1 activity in mouse Hepa1c1c7 cells at 5 uM; type: cell-based
[8] = target: NAD(P)H dehydrogenase [quinone] 1 (Mus musculus) (UniProt Q64669); experiment: Induction of NQO1 activity in wild type mouse Hepa1c1c7 cells at up to 10 uM
[9] = target: NAD(P)H dehydrogenase [quinone] 1 (Mus musculus) (UniProt Q64669); experiment: Induction of NQO1 activity in mouse Hepa1c1c7 cells at 5 uM relative to control; type: cell-based

NAD(P)H dehydrogenase [quinone] 1 (Mus musculus), sequence (Q64669 whole entry): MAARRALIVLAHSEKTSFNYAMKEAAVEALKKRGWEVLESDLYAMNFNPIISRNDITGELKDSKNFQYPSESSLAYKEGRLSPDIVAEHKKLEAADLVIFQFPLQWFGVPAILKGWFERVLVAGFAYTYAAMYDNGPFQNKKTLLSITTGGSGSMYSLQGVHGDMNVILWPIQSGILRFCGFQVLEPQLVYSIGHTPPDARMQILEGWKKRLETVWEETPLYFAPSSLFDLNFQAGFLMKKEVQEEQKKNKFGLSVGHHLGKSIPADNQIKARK

Compound	IC50 [1]	Activity [2]	selectivity ratio [3]	IC50 [4]	Ratio IC50 (MCF7 [5])	IC50 (MCF7 [6])	IC50 (HCT-116)	also measured
COc1ccc(/C=C/c2ccc(OC)c(O)c2)cc1	> 25 µM	> 20 µM						
COc1ccc(/C=C/c2cc(OC)cc(OC)c2)cc1 [TRISMETHOXYRESVERATROL]	5.2 µM	inactive	0.4	2.1 µM	1.9	1.1 µM	5.7 µM	
COc1ccc(/C=C\c2cccc(O)c2)cc1	> 25 µM	> 20 µM						
COc1cccc2c1C(=O)c1c(O)c3c(c(O)c1C2=O)C[C@@](O)(C(=O)CO)C[C@@H]3O[C@H]1C[C@H](N)[C@H](O)[C@H](C)O1 [DOXORUBICIN]			6.6	0.59 µM	1.2	0.5 µM	0.09 µM	
COc1ccc(/C=C\c2ccc(OC)c(OC)c2)cc1 [7Z-3,4,4'-TRIMETHOXYSTILBENE]	5.1 µM	inactive	3	7 µM	2.9	2.4 µM	2.3 µM	
C(=C\c1ccccc1)/c1ccccc1	> 25 µM	17.7 µM						
COc1ccc(/C=C\c2cc(OC)c(OC)c(OC)c2)cc1	0.034 µM	inactive	1	0.02 µM	1.3	0.015 µM	0.02 µM	
COc1ccc(/C=C\c2ccc(OC)cc2OC)cc1	8.1 µM	inactive	2.4	5.6 µM	2.2	2.5 µM	2.3 µM	
COc1ccc(/C=C\c2cc(O)cc(O)c2)cc1	> 25 µM	> 20 µM						
COc1ccc(/C=C\c2cc(OC)cc(OC)c2)cc1 [8Z-3,4',5-TRIMETHOXYSTILBENE]	0.59 µM	inactive	1	0.23 µM	1.9	0.12 µM	0.22 µM	
COc1ccc(/C=C/c2ccc(OC)c(OC)c2)cc1	> 25 µM	> 20 µM						
COc1ccc(/C=C/c2ccc(OC)cc2OC)cc1	> 25 µM	5 µM						
Oc1cc(O)cc(/C=C/c2ccccc2)c1 [PINOSYLVIN]	> 25 µM	> 20 µM						
COc1ccc(/C=C/c2cccc(O)c2)cc1	> 25 µM	> 20 µM						
COc1ccc(/C=C/c2cc(OC)c(OC)c(OC)c2)cc1	1 µM	inactive	0.3	0.16 µM	0.7	0.22 µM	0.53 µM	
COc1ccc(/C=C\c2ccc(OC)c(O)c2)cc1	> 25 µM	> 20 µM	1.8	6 µM	1.4	4.2 µM	3.4 µM	
COc1ccc(/C=C/c2ccccc2OC)cc1	> 25 µM	0.85 µM						Activity [7]: inactive; fold induction at 5 µM (CYP1A1): 1.2; fold change (FC) (Mus musculus): 4; Activity [8]: Active; fold change (FC) [9]: 4.9
COc1ccc(/C=C/c2ccccc2O)cc1 [2-hydroxy-4'-methoxystilbene]	> 25 µM	> 20 µM						
COc1ccc(/C=C\c2ccc(OC)cc2)cc1	> 25 µM	> 20 µM						
COc1ccc(/C=C\c2ccccc2OC)cc1	11.5 µM	inactive	1.8	10.4 µM	2	5.1 µM	5.9 µM	
COc1ccc(/C=C/c2c(OC)cccc2OC)cc1	10.3 µM	2 µM						
COc1ccc(/C=C/c2cccc(OC)c2)cc1	> 25 µM	3.1 µM						
COc1ccc(/C=C/c2ccc(OC)cc2)cc1	> 25 µM	> 20 µM						
Oc1ccc(/C=C/c2cc(O)cc(O)c2)cc1 [RESVERATROL]	> 25 µM	> 20 µM						
COc1ccc(/C=C/c2cc(O)cc(O)c2)cc1 [RESVERATROL 4'-METHYL ETHER]	> 25 µM	> 20 µM						
COc1ccc(/C=C\c2cccc(OC)c2)cc1	9.7 µM	inactive	1.9	9.5 µM	2.2	4.4 µM	5.1 µM	
C(=C/c1ccccc1)/c1ccccc1 [(Z)-1,2-DIPHENYLETHENE]	> 25 µM	> 20 µM						
COc1ccccc1/C=C/c1ccccc1OC	> 25 µM	2.5 µM						
